Among the data in patent US20240368118A1, “CEREBLON BINDING COMPOUNDS, COMPOSITIONS THEREOF, AND METHODS OF TREATMENT THEREWITH” (CELGENE CORPORATION, priority 2021, published 2024) are DC50 and Ymin values, retold here.

A value given as a limit tells only on which side of the number the result lay.

The target in this assay is T1, AR (Homo sapiens, UniProt P10275).
T1 construct: endogenous in cells; host or cells: VCaP cells
T1 sequence (P10275 1-920): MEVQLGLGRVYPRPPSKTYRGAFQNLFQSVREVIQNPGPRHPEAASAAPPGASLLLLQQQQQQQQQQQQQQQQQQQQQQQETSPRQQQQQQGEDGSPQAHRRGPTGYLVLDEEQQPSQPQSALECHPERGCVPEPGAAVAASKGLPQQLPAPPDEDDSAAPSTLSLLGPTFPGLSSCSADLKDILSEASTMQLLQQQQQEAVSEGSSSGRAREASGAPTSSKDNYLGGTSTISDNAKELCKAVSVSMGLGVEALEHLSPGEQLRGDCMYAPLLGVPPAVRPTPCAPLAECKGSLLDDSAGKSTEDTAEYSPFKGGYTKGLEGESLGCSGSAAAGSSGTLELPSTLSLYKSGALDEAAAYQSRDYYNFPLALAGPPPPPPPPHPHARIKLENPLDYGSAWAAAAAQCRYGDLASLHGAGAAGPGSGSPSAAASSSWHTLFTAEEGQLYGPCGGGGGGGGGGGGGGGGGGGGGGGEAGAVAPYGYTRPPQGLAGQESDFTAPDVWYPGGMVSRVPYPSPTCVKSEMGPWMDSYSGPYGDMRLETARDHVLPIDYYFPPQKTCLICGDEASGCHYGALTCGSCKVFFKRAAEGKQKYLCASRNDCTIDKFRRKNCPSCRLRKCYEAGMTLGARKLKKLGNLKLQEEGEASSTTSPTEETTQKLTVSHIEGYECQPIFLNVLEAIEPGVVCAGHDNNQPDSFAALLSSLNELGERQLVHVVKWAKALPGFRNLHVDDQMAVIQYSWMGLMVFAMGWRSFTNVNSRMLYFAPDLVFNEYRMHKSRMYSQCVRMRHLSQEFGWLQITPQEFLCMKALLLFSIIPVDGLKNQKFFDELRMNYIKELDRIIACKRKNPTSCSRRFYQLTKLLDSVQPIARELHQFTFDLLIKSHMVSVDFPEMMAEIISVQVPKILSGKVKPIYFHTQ
Kind of assay: VCAP AR Degradation Assay. It is filed as cell-based. The settings on record: VCaP cells, 24 h; for DC50: AR ELISA, concentration when AR level = 50% of DMSO control; for Ymin: lowest AR level normalized to DMSO control, given as numbers. How it is done: VCAP AR Degradation Assay. Test compounds were pre-dispensed into a Corning CellBind 96-well clear bottom plate (Cat #3300) using an acoustic dispenser to make a 10-point concentration series at 1:3 dilution for each compound. The final top concentration of each compound was 5 μM. DMSO at a final concentration of 0.1% was used as a control. VCaP cells cultured in DMEM with 8% fetal bovine serum (FBS) were seeded at 50K cells per well in a 200 μL volume into the compound plate and incubated at 37° C. in a C02 incubator for 24 h. The medium was carefully removed from the cells and the plate was placed on ice. One hundred μL of ice-cold 1× cell lysis buffer from Cell Signaling Technologies (Cat #9803) was added to each well of the cells and the plate was incubated at 4° C. on a shaker for 1 h. Fifteen μL of cell lysate was used for AR ELISA detection using a PathScan Total Sandwich AR ELISA kit (Cell Signaling Technology, Cat #12580). AR levels in compound-treated wells were normalized to that of DMSO control and expressed as percent of control (PoC) (y). A Four Parameter Logistic Model (Sigmoidal Dose-Response Model) was used to determine the compound's DC50, and EC50, using the following equation: […]
The lowest measured AR level normalized to DMSO control in response to compound treatment, termed Y value, was used to characterize the compound-mediated AR degradation efficiency.
For orientation: An ELISA detects its analyte on a solid surface through an enzyme-linked reagent.

`C[C@@H]1CN(CCCC[C@H]2CC[C@H](N3C(=S)N(c4ccc(C#N)c(C(F)(F)F)c4)C(=O)C3(C)C)CC2)C[C@H](C)N1CC(=O)Nc1cccc(C2CCC(=O)NC2=O)c1` (stereo partly drawn) [Cmpd 24, 2-((2R,6S)-4-(4-((trans)-4-(3-(4-Cyano-3-(trifluoromethyl)phenyl)-5,5-dimethyl-4-oxo-2-thioxoimidazolidin-1-yl)cyclohexyl)butyl)-2,6-dimethylpiperazin-1-yl)-N-(3-(2,6-dioxopiperidin-3-yl)phenyl)acetamide]: the DC50 (usually the concentration at which degradation of the target reaches its halfway point) is ≤ 5 nM and the Ymin is given as 15 % of DMSO control.
The like results for `C[C@@H]1C[C@H](OCCC[C@H]2CC[C@H](N3C(=S)N(c4cnc(C#N)c(C(F)(F)F)c4)C(=O)C3(C)C)CC2)C[C@H](C)N1CC(=O)Nc1ccc(C2CCC(=O)NC2=O)cc1` (stereo partly drawn) [Cmpd 38, 2-((2R,4r,6S)-4-(3-((trans)-4-(3-(6-Cyano-5-(trifluoromethyl)pyridin-3-yl)-5,5-dimethyl-4-oxo-2-thioxoimidazolidin-1-yl)cyclohexyl)propoxy)-2,6-dimethylpiperidin-1-yl)-N-(4-(2,6-dioxopiperidin-3-yl)phenyl)acetamide] were, in that order, 5 to 15 nM and 14 % of DMSO control.
Regarding `C[C@@H]1CN(CCCC[C@H]2CC[C@H](N3C(=S)N(c4ccc(C#N)c(C(F)(F)F)c4)C(=O)C3(C)C)CC2)C[C@H](C)N1CC(=O)Nc1cccc(N2CCC(=O)NC2=O)c1` [Cmpd 25, 2-((2R,6S)-4-(4-((trans)-4-(3-(4-Cyano-3-(trifluoromethyl)phenyl)-5,5-dimethyl-4-oxo-2-thioxoimidazolidin-1-yl)cyclohexyl)butyl)-2,6-dimethylpiperazin-1-yl)-N-(3-(2,4-dioxotetrahydropyrimidin-1(2H)-yl)phenyl)acetamide], the DC50 is 5 to 15 nM and the Ymin is listed as 24 % of DMSO control.
Take `C[C@@H]1CN(CCCC[C@H]2CC[C@H](N3C(=S)N(c4ccc(C#N)c(C(F)(F)F)c4)C(=O)C3(C)C)CC2)C[C@H](C)N1CC(=O)Nc1ccc(C2CCC(=O)NC2=O)cc1` (stereo partly drawn) [Cmpd 30, 2-((2R,6S)-4-(4-((trans)-4-(3-(4-Cyano-3-(trifluoromethyl)phenyl)-5,5-dimethyl-4-oxo-2-thioxoimidazolidin-1-yl)cyclohexyl)butyl)-2,6-dimethylpiperazin-1-yl)-N-(4-(2,6-dioxopiperidin-3-yl)phenyl)acetamide]: the DC50 is ≤ 5 nM and the Ymin was 20 % of DMSO control.
For `C[C@@H]1C[C@H](CCO[C@H]2CC[C@H](N3C(=S)N(c4cnc(C#N)c(C(F)(F)F)c4)C(=O)C3(C)C)CC2)C[C@H](C)N1CC(=O)Nc1ccc(C2CCC(=O)NC2=O)cc1` (stereo partly drawn) [Cmpd 27, 2-((2R,4r,6S)-4-(2-(((trans)-4-(3-(6-Cyano-5-(trifluoromethyl)pyridin-3-yl)-5,5-dimethyl-4-oxo-2-thioxoimidazolidin-1-yl)cyclohexyl)oxy)ethyl)-2,6-dimethylpiperidin-1-yl)-N-(4-(2,6-dioxopiperidin-3-yl)phenyl)acetamide], in that order: ≤ 5 nM and 11 % of DMSO control.
The like results for `C[C@@H]1C[C@H](OCCC[C@H]2CC[C@H](N3C(=S)N(c4ccc(C#N)c(C(F)(F)F)c4)C(=O)C3(C)C)CC2)C[C@H](C)N1CC(=O)Nc1ccc(C2CCC(=O)NC2=O)cc1` (stereo partly drawn) [Cmpd 37, 2-((2R,4r,6S)-4-(3-((trans)-4-(3-(4-Cyano-3-(trifluoromethyl)phenyl)-5,5-dimethyl-4-oxo-2-thioxoimidazolidin-1-yl)cyclohexyl)propoxy)-2,6-dimethylpiperidin-1-yl)-N-(4-(2,6-dioxopiperidin-3-yl)phenyl)acetamide] were, in that order, 15 to 100 nM and 19 % of DMSO control.
